For experiment [1], the system named is melanoma model. Description: growth in a melanoma model. The experiment is classed as cell-based.
Experiment [2] has as its system caspase-3. The experiment in a line: caspase-3 activity in a breast tumor model. In kind it is cell-based. The protocol: In a breast tumor model, both compound C and topotecan (1 nM) individually increase caspase-3 activity less than two fold over the control. A nearly twelve fold increase in caspase-3 activity is seen with the same amount of compound C at a concentration of about 1 nM topotecan.

`CC[C@@]1(O)C(=O)OCc2c1cc1n(c2=O)Cc2cc3ccccc3nc2-1` [camptothecin, Camptothecin]: the growth entry in experiment [1] (camptothecin 5 nM alone) is reported as “about 50 % of control”.
As to `CN[C@@H](C)C(=O)N[C@H](C(=O)N1CCC[C@H]1C(=O)NC(Cc1ccccc1)Cc1ccccc1)C(C)C` [compound D], in experiment [1] (compound D 250 nM alone), the growth entry is reported as “about 90 % of control”.
For the compound `CC[C@@]1(O)C(=O)OCc2c1cc1n(c2=O)Cc2cc3c(CN(C)C)c(O)ccc3nc2-1` [topotecan], in experiment [2] (topotecan 1 nM alone), the “increase in caspase-3 activity over the control” value is “less than two”.
For `CN[C@@H](C)C(=O)N[C@H](C(=O)N1C[C@@H](NC(=O)CC2CCCCC2)C[C@H]1C(=O)NCCc1ccccc1)C(C)C` [compound C], the “increase in caspase-3 activity over the control” value in experiment [2] (compound C alone) is “less than two”.

The record behind these values is patent publication US20110251134A1, “COMBINATION OF (A) A DNA TOPOSOMERASE INHIBITOR AND (B) AN IAP INHIBITOR” (priority 2004, published 2011).
